The record followed here is US6723727B1, “Substituted purine derivatives, processes for their preparation, their use, and compositions comprising them” (Hoechst Aktiengesellschaft, priority 1996, dated 2004).

human vitronectin receptor αvβ3, sequence (P06756 31-889 limits assumed): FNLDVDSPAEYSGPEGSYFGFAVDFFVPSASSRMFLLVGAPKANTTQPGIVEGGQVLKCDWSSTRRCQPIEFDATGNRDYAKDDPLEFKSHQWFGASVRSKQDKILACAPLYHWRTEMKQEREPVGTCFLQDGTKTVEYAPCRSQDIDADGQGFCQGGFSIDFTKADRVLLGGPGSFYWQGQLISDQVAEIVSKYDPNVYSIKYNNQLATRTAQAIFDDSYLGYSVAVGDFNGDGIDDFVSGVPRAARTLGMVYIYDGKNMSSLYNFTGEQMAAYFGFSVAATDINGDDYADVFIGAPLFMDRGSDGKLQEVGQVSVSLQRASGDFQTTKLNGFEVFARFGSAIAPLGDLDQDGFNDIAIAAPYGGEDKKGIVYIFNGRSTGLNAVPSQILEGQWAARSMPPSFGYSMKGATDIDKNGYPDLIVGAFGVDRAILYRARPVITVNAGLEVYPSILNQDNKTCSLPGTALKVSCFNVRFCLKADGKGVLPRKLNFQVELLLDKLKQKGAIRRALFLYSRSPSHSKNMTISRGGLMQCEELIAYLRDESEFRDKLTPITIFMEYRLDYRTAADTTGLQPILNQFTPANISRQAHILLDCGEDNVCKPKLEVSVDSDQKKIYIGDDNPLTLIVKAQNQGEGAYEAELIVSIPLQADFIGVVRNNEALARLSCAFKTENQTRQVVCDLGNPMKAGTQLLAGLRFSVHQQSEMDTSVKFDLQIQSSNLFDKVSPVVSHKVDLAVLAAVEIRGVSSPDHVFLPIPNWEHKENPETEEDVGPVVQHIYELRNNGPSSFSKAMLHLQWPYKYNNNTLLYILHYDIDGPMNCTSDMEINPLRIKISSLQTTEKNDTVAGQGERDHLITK
human vitronectin receptor αvβ3, sequence (P06756 891-1048 limits assumed): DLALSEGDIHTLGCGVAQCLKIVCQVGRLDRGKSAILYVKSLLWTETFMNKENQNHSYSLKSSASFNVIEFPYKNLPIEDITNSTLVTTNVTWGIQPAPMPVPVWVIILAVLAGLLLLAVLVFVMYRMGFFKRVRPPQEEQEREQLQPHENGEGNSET
human vitronectin receptor αvβ3, sequence (P05106 27-788): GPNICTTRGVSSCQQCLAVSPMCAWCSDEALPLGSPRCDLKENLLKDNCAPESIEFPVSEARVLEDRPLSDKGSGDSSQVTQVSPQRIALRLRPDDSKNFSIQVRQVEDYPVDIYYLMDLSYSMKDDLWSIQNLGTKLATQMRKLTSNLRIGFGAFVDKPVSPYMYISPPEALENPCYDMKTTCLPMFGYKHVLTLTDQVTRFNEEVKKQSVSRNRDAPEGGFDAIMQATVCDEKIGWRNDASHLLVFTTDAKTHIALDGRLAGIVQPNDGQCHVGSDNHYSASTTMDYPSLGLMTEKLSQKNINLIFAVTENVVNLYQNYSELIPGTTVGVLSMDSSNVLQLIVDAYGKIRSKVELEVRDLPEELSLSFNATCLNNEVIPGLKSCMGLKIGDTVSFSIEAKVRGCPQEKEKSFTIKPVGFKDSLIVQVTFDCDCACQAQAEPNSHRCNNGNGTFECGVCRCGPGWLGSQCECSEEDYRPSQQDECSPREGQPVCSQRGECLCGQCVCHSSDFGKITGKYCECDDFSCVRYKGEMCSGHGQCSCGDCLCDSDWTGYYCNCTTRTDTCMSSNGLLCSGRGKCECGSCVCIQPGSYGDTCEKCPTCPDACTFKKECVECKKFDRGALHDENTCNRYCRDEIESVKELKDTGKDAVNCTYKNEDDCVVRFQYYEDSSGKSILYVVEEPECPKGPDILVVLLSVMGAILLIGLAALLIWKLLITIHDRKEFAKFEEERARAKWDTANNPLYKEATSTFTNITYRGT

One test has as its target human vitronectin receptor αvβ3 (Homo sapiens, UniProt P05106+P06756). Briefly: Inhibition of binding of kistrin to human vitronectin receptor (αvβ3 ELISA test, K/VnR).
Settings: not given
In general terms: An ELISA detects its analyte on a solid surface through an enzyme-linked reagent.
As a reminder, the IC50 is the concentration that inhibits the measured activity by half. Compound `N=C(N)NCCCCCNc1ncnc2c1ncn2C[C@H](NC(=O)OCc1ccccc1)C(=O)O` [Example 1, N^6-(1-(5-Guanidinopentyl))-N^9-(3-(2S-(benzyloxycarbonylamino)propionic acid))-adenine] had an IC50 of 1100 nM. The same measure, in the same setting: the value for `N=C(N)NCCCCNc1ncnc2c1ncn2C[C@H](NC(=O)OCc1ccccc1)C(=O)O` [Example 2, N^6-(1-(4-Guanidinobutyl))-N^9-(3-(2S-(benzyloxycarbonylamino)propionic acid))-adenine] was 700 nM; that for `N=C(N)NCCCNc1ncnc2c1ncn2C[C@H](NC(=O)OCc1ccccc1)C(=O)O` [Example 3, N^6-(1-(3-Guanidinopropyl))-N^9-(3-(2S-(benzyloxycarbonylamino)propionic acid))-adenine] was 2200 nM. On the same count and under the same terms, as for `O=C(N[C@@H](Cn1cnc2c(NCCCCNC3=NCCN3)ncnc21)C(=O)O)OCc1ccccc1` [Example 4, N^6-(1-(4-(4,5-Dihydro-1H-imidazol-2-ylamino)butyl))-N^9-(3-(2S-(benzyloxycarbonylamino)propionic acid))-adenine], the figure is 150 nM; as for `N=C(N)NCCCn1cnc2c(NCC[C@H](NC(=O)OCc3ccccc3)C(=O)O)ncnc21` [Example 12, N^6-(4-(2S-(Benzyloxycarbonylamino)butyric acid))-N^9-(1-(3-guanidinylpropyl))-adenine], 580 nM; as for `O=C(N[C@@H](CCNc1ncnc2c1ncn2CCCNC1=NCCN1)C(=O)O)OCc1ccccc1` [Example 13, N^6-(4-(2S-(Benzyloxycarbonylamino)butyric acid))-N^9-(1-(3-(4,5-dihydro-1H-imidazol-2-ylamino)propyl))-adenine], 190 nM. With `N=C(N)NCCCCCn1cnc2c(NC[C@H](NC(=O)OCc3ccccc3)C(=O)O)ncnc21` [Example 14, N^6-(3-(2S-(Benzyloxycarbonylamino)propionic acid))-N^9-(1-(5-guanidinyl-pentyl))-adenine], the IC50 stood at 650 nM. The compound `O=C(N[C@@H](CNc1ncnc2c1ncn2CCCCCNC1=NCCN1)C(=O)O)OCc1ccccc1` [Example 15, N^6-(3-(2S-(Benzyloxycarbonylamino)propionic acid))-N^9-(1-(5-(4,5-dihydro-1H-imidazol-2-ylamino)pentyl))-adenine] registered an IC50 of 210 nM. On the same count and under the same terms, the value for `N=C(N)NCCCn1cnc2c(NC[C@H](NC(=O)OCc3ccccc3)C(=O)O)ncnc21` [Example 16, N^6-(3-(2S-(Benzyloxycarbonylamino)propionic acid))-N^9-(1-(3-guanidinylpropyl))-adenine] was 540 nM; that for `N=C(N)NCCCCn1cnc2c(NC[C@H](NC(=O)OCc3ccccc3)C(=O)O)ncnc21` [Example 17, N^6-(3-(2S-(Benzyloxycarbonylamino)propionic acid))-^9-(1-(4guanidinyl-butyl))-adenine] was 170 nM; that for `O=C(N[C@@H](CNc1ncnc2c1ncn2CCCCNC1=NCCN1)C(=O)O)OCc1ccccc1` [Example 18] was 75 nM. Regarding `O=C(N[C@@H](Cn1cnc2c(N3CCC(C(=O)NC4=NCCCN4)CC3)ncnc21)C(=O)O)OCc1ccccc1` [Example 19, 2S-Benzyloxycarbonylamino-3-(6-(4-(1,4,5,6-tetrahydropyrimidin-2-yl-carbamoyl)piperidin-1-yl)purin-9-yl)propionic acid], the IC50 came to 4 nM.

As for `O=C(N[C@@H](Cn1cnc2c(NCCCCNc3nc4ccccc4[nH]3)ncnc21)C(=O)O)OCc1ccccc1` [Example 23, 3-(6-((4-(Benzimidazol-2-ylamino)butyl)amino)purin-9-yl)-2S-benzyloxycarbonylaminopropionic Acid], the 50% inhibitory concentration (IC50) is 160 nM. Turning to `O=C(N[C@@H](Cn1cnc2c(N3CCC(CNC4=NCCN4)CC3)ncnc21)C(=O)O)OCc1ccccc1` [Example 24, 2S-Benzyloxycarbonylamino-3-(6-(4-((4,5-dihydro-1H-imidazol-2-ylamino)-methyl)piperidin-1-yl)purin-9-yl)propionic Acid], the IC50 came out at 52 nM. For the compound `O=C(N[C@H](Cn1cnc2c(N3CCC(CNC4=NCCN4)CC3)ncnc21)C(=O)O)OCc1ccccc1` [Example 25, 2R-Benzyloxycarbonylamino-3-(6-(4-((4,5-dihydro-1H-imidazol-2-ylamino)-methyl)piperidin-1-yl)purin-9-yl)propionic Acid], the IC50 turned out to be 345 nM.

Compound `N=C(N)NCC1CCN(c2ncnc3c2ncn3C[C@H](NC(=O)OCc2ccccc2)C(=O)O)CC1` [Example 26, 2S-Benzyloxycarbonylamino-3-(6-(4-(guanidinomethyl)piperidin-1-yl)purin-9-yl)propionic Acid] returned an IC50 of 360 nM.

The test is the same for the next values; noted with them: 10 μM test compound.
As to `NCCCCCn1cnc2c(NC[C@H](NC(=O)OCc3ccccc3)C(=O)O)ncnc21` [Example 14c, N^6-(3-(2S-(Benzyloxycarbonylamino)propionic acid))-N^9-(1-(5-amino-pentyl))-adenine], the “K/VnR Inhibition at 10 μM (in %)” value is recorded as 22%. Same read-out and setting: the value for `NCCCn1cnc2c(NC[C@H](NC(=O)OCc3ccccc3)C(=O)O)ncnc21` [Example 16b, N^6-(3-(2S-(Benzyloxycarbonylamino)propionic acid))-N^9-(1-(3-amino-propyl))-adenine] was 29%.
